Measured values as given in US20120214802A1, “PYRROLIDINE COMPOUNDS WHICH INHIBIT BETA-SECRETASE ACTIVITY AND METHODS OF USE THEREOF” (priority 2009, published 2012).
Like-named read-outs stand apart in the source and are kept apart here.

What was measured:
cathepsin D = cathepsin D (Homo sapiens, UniProt P07339); test: Inhibition of cathepsin D activity (MALDI-TOF, substrate ELDLAVEFWHDR); assay type: biochemical
Description: [The source words this procedure for another target and reports this target under the same test.] (§1) A substrate peptide NH3-ELDLAVEFWHDR-CO2 (SEQ ID NO.: 1) was dissolved at 2 mg/mL in 10% glacial acetic acid and diluted into 0.009M NaOH to obtain μM concentration at pH 4.1. After equilibration at 37 degrees C., the reactions were initiated by the addition of an aliquot of memapsin 2. Aliquots were removed at time intervals, and combined with an equal volume of MALDI-TOF matrix (α-hydroxycinnamic acid in acetone, 20 mg/mL) and immediately spotted in duplicate onto a stainless-steel MALDI sample plate. MALDI-TOF mass spectrometry was performed on a PE Biosystems Voyager DE. The instrument was operated at 25,000 accelerating volts in positive mode with a 150 ns delay. Ions with a mass-to-charge ratio (m/z) were detected in the range of 650-2000 atomic mass units. Data were analyzed by the Voyager Data Explorer module to obtain ion intensity data for mass species of substrates and corresponding products in a given mixture. Relative product formation was calculated as the ratio of signal intensity of the product to the sum of signal intensities of both product and the corresponding substrate. Relative product formed per unit time was obtained from non-linear regression analysis of the data representing the initial 15% formation of product using the model:
where k was the relative hydrolytic rate constant and T was time in seconds. Initial rates were expressed relative to uninhibited controls and fit to a tight-binding model of competitive inhibition as above.

memapsin 2 [1] = target: T1, memapsin 2 (Cricetulus griseus, UniProt G3IAK4); test: Cellular Aβ IC50 determination (Aβ40 sandwich ELISA); assay type: cell-based, Chinese hamster; details: CHO cells over-expressing human APP695 with London and Swedish mutations, 24 h, read-out: M2 IC50
T1 construct: endogenous in cells; host or cells: Chinese hamster ovary cells over-expressing human APP695 (London + Swedish)
T1 sequence (G3IAK4 22-501): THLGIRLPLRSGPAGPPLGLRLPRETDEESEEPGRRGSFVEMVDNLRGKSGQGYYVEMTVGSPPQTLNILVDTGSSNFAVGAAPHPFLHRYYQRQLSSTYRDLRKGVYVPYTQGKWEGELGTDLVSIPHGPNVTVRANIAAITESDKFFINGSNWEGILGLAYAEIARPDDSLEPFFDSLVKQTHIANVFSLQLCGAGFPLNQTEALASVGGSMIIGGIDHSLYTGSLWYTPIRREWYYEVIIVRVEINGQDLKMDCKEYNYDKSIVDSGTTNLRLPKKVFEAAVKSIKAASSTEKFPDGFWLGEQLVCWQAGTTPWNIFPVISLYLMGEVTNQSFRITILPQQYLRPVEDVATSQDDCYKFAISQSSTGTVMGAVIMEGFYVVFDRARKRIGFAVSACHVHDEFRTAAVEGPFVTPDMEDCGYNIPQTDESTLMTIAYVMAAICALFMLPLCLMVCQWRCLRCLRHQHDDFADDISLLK
Outline: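 CHO cells overexpressing human APP695 (London and Swedish mutations) treated 48 h post-seeding with serially diluted compounds (top near 4 μM, 0.4% DMSO), 24 h at 37° C, 5% CO2. Medium Aβ40 measured by sandwich ELISA; levels relative to control fitted to 4-parameter IC50 model.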

memapsin 2 [2] = target: memapsin 2 (Homo sapiens, UniProt P56817); test: Inhibition of memapsin 2 beta-secretase activity (fluorogenic substrate FS-2); assay type: biochemical; details: pH 4, 37° C., read-out: M2 Ki
Chain of memapsin 2 (Homo sapiens, UniProt P56817) (P56817 46-501): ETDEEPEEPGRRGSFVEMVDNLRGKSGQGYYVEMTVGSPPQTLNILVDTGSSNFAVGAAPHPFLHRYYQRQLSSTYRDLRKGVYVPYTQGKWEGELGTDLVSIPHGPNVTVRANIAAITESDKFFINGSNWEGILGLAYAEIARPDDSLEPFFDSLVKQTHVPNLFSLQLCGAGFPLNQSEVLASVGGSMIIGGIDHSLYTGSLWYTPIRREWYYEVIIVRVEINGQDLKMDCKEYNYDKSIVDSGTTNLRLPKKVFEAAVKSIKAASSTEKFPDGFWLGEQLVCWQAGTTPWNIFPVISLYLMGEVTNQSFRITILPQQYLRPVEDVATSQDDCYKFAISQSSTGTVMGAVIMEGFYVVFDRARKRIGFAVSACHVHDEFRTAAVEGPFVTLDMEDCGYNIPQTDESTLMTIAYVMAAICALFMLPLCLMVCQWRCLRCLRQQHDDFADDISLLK
Outline: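 Memapsin 2 pre-incubated with compound for 20 min at pH 4, 37° C. Reaction started with fluorogenic substrate FS-2, […], derived from Swedish-variant APP beta-secretase site; inhibition measured from fluorescence.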

CYP3A4 = target: T2, CYP3A4 (Homo sapiens, UniProt P08684); test: CYP3A4 inhibition (midazolam metabolism in human liver microsomes); assay type: in vitro ADME; details: substrate midazolam, read-out: CYP 3A4Ki
T2 construct: host or cells: human liver microsomes
T2 sequence (P08684 whole entry): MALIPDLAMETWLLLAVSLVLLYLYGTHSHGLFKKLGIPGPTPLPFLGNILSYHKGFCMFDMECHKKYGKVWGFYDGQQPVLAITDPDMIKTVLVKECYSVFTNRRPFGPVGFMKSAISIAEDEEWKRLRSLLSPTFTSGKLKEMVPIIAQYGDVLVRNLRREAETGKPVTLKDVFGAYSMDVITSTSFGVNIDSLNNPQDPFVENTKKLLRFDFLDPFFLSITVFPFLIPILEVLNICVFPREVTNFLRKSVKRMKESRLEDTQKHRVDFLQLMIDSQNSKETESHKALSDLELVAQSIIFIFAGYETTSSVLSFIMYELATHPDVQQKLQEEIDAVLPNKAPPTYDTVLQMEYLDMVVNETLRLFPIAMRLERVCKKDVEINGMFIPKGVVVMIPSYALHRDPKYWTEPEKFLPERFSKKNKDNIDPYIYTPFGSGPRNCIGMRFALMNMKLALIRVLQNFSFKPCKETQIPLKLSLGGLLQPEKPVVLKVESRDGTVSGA
Outline: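 Human liver microsomes (0.1 mg/mL) with midazolam at 1.25–10 μM and compound at 0.078–10 μM, in 100 mM phosphate pH 7.4 with NADPH regeneration at 37.2 °C, sampled at 20, 30 and 40 min. 1′-Hydroxymidazolam was quantified by LC-MS/MS. Ki was obtained by Dixon plots across substrate concentrations.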

memapsin 1 = target: T3, memapsin 1 (Homo sapiens, UniProt Q9Y5Z0); test: Inhibition of memapsin 1 beta-secretase activity (MALDI-TOF, substrate ELDLAVEFWHDR); assay type: biochemical; details: read-out: M1 Ki
T3 sequence (Q9Y5Z0 63-518): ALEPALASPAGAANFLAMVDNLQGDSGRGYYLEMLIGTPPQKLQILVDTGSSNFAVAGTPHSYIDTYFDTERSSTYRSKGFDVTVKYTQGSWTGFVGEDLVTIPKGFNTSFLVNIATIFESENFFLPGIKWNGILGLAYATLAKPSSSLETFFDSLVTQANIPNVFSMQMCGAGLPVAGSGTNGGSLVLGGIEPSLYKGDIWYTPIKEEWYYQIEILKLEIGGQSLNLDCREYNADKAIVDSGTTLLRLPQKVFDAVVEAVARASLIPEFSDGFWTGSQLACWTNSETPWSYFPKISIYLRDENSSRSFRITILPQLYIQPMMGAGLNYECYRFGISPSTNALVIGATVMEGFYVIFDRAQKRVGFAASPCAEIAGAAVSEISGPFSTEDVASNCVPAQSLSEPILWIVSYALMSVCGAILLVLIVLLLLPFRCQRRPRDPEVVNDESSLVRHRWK
Description: [The source words this procedure for another target and reports this target under the same test.] as §1
where k was the relative hydrolytic rate constant and T was time in seconds. […]

[3] = Hepatic intrinsic clearance in liver microsomes; assay type: in vitro ADME; details: human, pH 7.4, human liver microsomes, in vitro clearance, read-out: HLM CL
Outline: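 Human liver microsomes in pH 7.4 phosphate buffer with EDTA, preincubated 5 min at 37° C, then started with NADPH; samples taken at 0, 5, 10, 20 and 30 min and parent measured by LC/MS/MS. Remaining compound relative to 0 min gave half-life and k1, scaled to in vivo clearance per Davies and Morris.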

[4] = substrate peptide ELDLAVEFWHDR, pH 4.1, 37 degrees C, read-out: CD Ki

Chain of cathepsin D (P07339 65-412, species assumed): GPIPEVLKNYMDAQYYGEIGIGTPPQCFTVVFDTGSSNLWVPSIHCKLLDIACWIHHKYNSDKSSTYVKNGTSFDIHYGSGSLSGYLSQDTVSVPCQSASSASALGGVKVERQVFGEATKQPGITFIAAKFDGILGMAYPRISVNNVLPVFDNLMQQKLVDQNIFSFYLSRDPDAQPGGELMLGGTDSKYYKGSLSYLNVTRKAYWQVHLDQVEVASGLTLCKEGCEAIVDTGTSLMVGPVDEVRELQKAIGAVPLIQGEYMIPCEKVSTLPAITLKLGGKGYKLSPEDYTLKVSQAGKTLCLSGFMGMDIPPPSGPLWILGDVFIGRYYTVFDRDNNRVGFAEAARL

Structure (SMILES)	Ki (cathepsin D; [4]) [nM]	IC50 (memapsin 2 [1]) [nM]	Ki (memapsin 2 [2]) [nM]	Ki (CYP3A4) [nM]	Ki (cathepsin D; read-out: CathD Ki) [nM]	Ki (memapsin 1) [nM]	Ki (memapsin 1; substrate peptide ELDLAVEFWHDR, pH 4.1, 37 degrees C) [nM]	CLint scaled at 200 μM [3] [mL/min/kg]
Cc1csc([C@H]2CCCN2C(=O)c2cc(C(=O)N[C@@H](Cc3ccccc3)[C@H](O)[C@H]3CCCN3)cc(-c3ncco3)c2)n1 [1-19, N-((1R,2S)-1-hydroxy-3-phenyl-1-((R)-pyrrolidin-2-yl)propan-2-yl)-3-((R)-2-(4-methylthiazol-2-yl)pyrrolidine-1-carbonyl)-5-(oxazol-2-yl)benzamide]	> 500	< 500	< 250	> 10000	–	–	–	–
Cc1csc([C@H]2CCCN2C(=O)c2cccc(C(=O)N[C@@H](Cc3ccccc3)[C@H](O)[C@H]3C[C@@H](OCc4ccccc4)CN3)c2)n1 [1-22, N-((1R,2S)-1-((2R,4R)-4-(benzyloxy)pyrrolidin-2-yl)-1-hydroxy-3-phenylpropan-2-yl)-3-((R)-2-(4-methylthiazol-2-yl)pyrrolidine-1-carbonyl)benzamide]	300 to 500	< 500	< 250	1000 to 5000	–	–	–	–
Cc1csc([C@H]2CCCN2C(=O)c2cc(C(=O)N[C@@H](Cc3ccccc3)[C@H](O)[C@H]3CCCN3)cc(N(C)S(C)(=O)=O)c2)n1 [1-23, N-((1R,2S)-1-hydroxy-3-phenyl-1-((R)-pyrrolidin-2-yl)propan-2-yl)-3-(N-methylmethylsulfonamido)-5-((R)-2-(4-methylthiazol-2-yl)pyrrolidine-1-carbonyl)benzamide]	> 500	< 500	< 250	5000 to 10000	–	–	–	–
Cc1csc([C@H]2CCCN2C(=O)c2cc(C(=O)N[C@@H](Cc3ccccc3)[C@H](O)[C@H]3C[C@@H](OCc4ccccc4)CN3)cc(-n3cccc3)c2)n1 [1-25, N-((1R,2S)-1-((2R,4R)-4-(benzyloxy)pyrrolidin-2-yl)-1-hydroxy-3-phenylpropan-2-yl)-3-((R)-2-(4-methylthiazol-2-yl)pyrrolidine-1-carbonyl)-5-(1H-pyrrol-1-yl)benzamide]	< 300	< 500	< 250	–	48.8	624	> 500	–
Cc1csc([C@H]2CCCN2C(=O)c2cc(C(=O)N[C@@H](Cc3ccccc3)[C@H](O)[C@H]3CCCN3)cc(-c3cccc(C(F)(F)F)c3)c2)n1 [1-43, N-((1R,2S)-1-hydroxy-3-phenyl-1-((R)-pyrrolidin-2-yl)propan-2-yl)-5-((R)-2-(4-methylthiazol-2-yl)pyrrolidine-1-carbonyl)-3′-(trifluoromethyl)biphenyl-3-carboxamide]	> 500	> 1000	< 250	–	–	–	–	< 400
Cc1csc([C@H]2CCCN2C(=O)c2cccc(C(=O)N[C@@H](Cc3cc(F)cc(F)c3)[C@H](O)[C@H]3CCCN3)c2)n1 [1-44, N-((1R,2S)-3-(3,5-difluorophenyl)-1-hydroxy-1-((R)-pyrrolidin-2-yl)propan-2-yl)-3-((R)-2-(4-methylthiazol-2-yl)pyrrolidine-1-carbonyl)benzamide]	> 500	500 to 1000	< 250	1000 to 5000	–	–	–	< 400
Cc1csc([C@H]2CCCN2C(=O)c2cc(C(=O)N[C@@H](Cc3cc(F)cc(F)c3)[C@H](O)[C@H]3CCCN3)cc(-c3ncco3)c2)n1 [1-49, N-((1R,2S)-3-(3,5-difluorophenyl)-1-hydroxy-1-((R)-pyrrolidin-2-yl)propan-2-yl)-3-((R)-2-(4-methylthiazol-2-yl)pyrrolidine-1-carbonyl)-5-(oxazol-2-yl)benzamide]	< 300	< 500	< 250	–	–	–	–	–
Cc1cc(C(=O)N[C@@H](Cc2cc(F)cc(F)c2)[C@H](O)[C@H]2CCCN2)cc(C(=O)N2CCC[C@@H]2c2nc(C)cs2)c1 [1-64, N-((1R,2S)-3-(3,5-difluorophenyl)-1-hydroxy-1-((R)-pyrrolidin-2-yl)propan-2-yl)-3-methyl-5-((R)-2-(4-methylthiazol-2-yl)pyrrolidine-1-carbonyl)benzamide]	> 500	–	< 250	–	–	–	–	–
Cc1coc([C@H]2CCCN2C(=O)c2cc(C(=O)N[C@@H](Cc3cc(F)cc(F)c3)[C@H](O)[C@H]3CCCN3)cc(-c3ncco3)c2)n1 [1-69, N-((1R,2S)-3-(3,5-difluorophenyl)-1-hydroxy-1-((R)-pyrrolidin-2-yl)propan-2-yl)-3-((R)-2-(4-methyloxazol-2-yl)pyrrolidine-1-carbonyl)-5-(oxazol-2-yl)benzamide]	300 to 500	–	< 250	–	–	–	–	–
C=CCO[C@H]1CN[C@@H]([C@@H](O)[C@H](Cc2ccccc2)NC(=O)c2cc(C(=O)N3CCC[C@@H]3c3nc(C)cs3)cc(-c3ncco3)c2)C1 [1-70, N-((1R,2S)-1-((2R,4R)-4-(allyloxy)pyrrolidin-2-yl)-1-hydroxy-3-phenylpropan-2-yl)-3-((R)-2-(4-methylthiazol-2-yl)pyrrolidine-1-carbonyl)-5-(oxazol-2-yl)benzamide]	< 300	–	< 250	–	–	–	–	–
Cc1csc([C@H]2CCCN2C(=O)c2cc(I)cc(C(=O)N[C@@H](Cc3ccccc3)[C@H](O)[C@H]3CCCN3)c2)n1 [1-71, N-((1R,2S)-1-hydroxy-3-phenyl-1-((R)-pyrrolidin-2-yl)propan-2-yl)-3-iodo-5-((R)-2-(4-methylthiazol-2-yl)pyrrolidine-1-carbonyl)benzamide]	> 500	–	< 250	–	–	–	–	–
Cc1csc([C@H]2CCCN2C(=O)c2cccc(C(=O)N[C@@H](Cc3ccccc3)[C@H](O)[C@H]3C[C@@H](Oc4ccccc4)CN3)c2)n1 [1-74, N-((1R,2S)-1-hydroxy-1-((2R,4R)-4-phenoxypyrrolidin-2-yl)-3-phenylpropan-2-yl)-3-((R)-2-(4-methylthiazol-2-yl)pyrrolidine-1-carbonyl)benzamide]	> 500	–	< 250	–	–	–	–	–
Cc1csc([C@H]2CCCN2C(=O)c2cc(C(=O)N[C@@H](Cc3ccccc3)[C@H](O)[C@H]3CCCN3)cc(N3CCCCS3(=O)=O)c2)n1 [1-78, N-((1R,2S)-1-hydroxy-3-phenyl-1-((R)-pyrrolidin-2-yl)propan-2-yl)-3-((R)-2-(4-methylthiazol-2-yl)pyrrolidine-1-carbonyl)-5-(thiazinanyl-S,S-dioxide)benzamide]	> 500	–	< 250	–	–	–	–	–
Cc1csc([C@H]2CCCN2C(=O)c2cc(C(=O)N[C@@H](Cc3ccccc3)[C@H](O)[C@H]3C[C@@H](Oc4ccccc4)CN3)cc(-c3ncco3)c2)n1 [1-79, N-((1R,2S)-1-hydroxy-1-((2R,4R)-4-phenoxypyrrolidin-2-yl)-3-phenylpropan-2-yl)-3-((R)-2-(4-methylthiazol-2-yl)pyrrolidine-1-carbonyl)-5-(oxazol-2-yl)benzamide]	300 to 500	–	< 250	–	–	–	–	–
